Data from US7550459B2, “Tetrahydroquinoline analogues as muscarinic agonists” (Acadia Pharmaceuticals, Inc., priority 2001, dated 2009).
Like-named read-outs stand apart in the source and are kept apart here.

Tests used:
M1 muscarinic receptor = molecular target: T1, M1 muscarinic receptor (Homo sapiens, UniProt P11229); experiment: Receptor Selection and Amplification (R-SAT) assay, cloned M1 receptor; format: cell-based; design: M1 Eff: scale not given here; details: for Emax: read-out: m1 % Efficacy
T1 construct: expressed in transfected cells
T1 sequence (P11229 1-460): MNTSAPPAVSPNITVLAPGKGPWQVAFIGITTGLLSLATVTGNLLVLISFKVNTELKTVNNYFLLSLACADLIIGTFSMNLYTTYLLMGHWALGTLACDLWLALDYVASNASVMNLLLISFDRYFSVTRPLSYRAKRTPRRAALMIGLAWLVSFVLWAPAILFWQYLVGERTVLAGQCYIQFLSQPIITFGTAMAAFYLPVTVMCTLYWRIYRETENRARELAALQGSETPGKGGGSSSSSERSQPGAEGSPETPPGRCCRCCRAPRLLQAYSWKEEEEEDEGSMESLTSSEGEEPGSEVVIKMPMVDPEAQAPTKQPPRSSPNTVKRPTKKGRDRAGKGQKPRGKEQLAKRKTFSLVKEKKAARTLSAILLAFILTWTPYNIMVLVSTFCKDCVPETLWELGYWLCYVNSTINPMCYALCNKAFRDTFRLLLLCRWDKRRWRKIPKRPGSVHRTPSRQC
Source text: (§1) The EC50 for an agonist is intended to denote the concentration of a compound needed to achieve 50% of a maximal response seen in an in vitro assay such as R-SAT. For inverse agonists, EC50 is intended to denote the concentration of a compound needed to achieve 50% inhibition of an R-SAT response from basal, no compound, levels.
(§2) A particularly convenient functional assay system is the receptor selection and amplification assay (R-SAT assay) in U.S. Pat. No. 5,707,798, which describes a method of screening for bioactive compounds by utilizing the ability of cells transfected with receptor DNA, e.g., coding for the different muscarinic subtypes, to amplify in the presence of a ligand of the receptor. Cell amplification is detected as increased levels of a marker also expressed by the cells.
(§3) Receptor Selection and Amplification (R-SAT) assays were carried out using the cloned M1-M5 receptors essentially as described in: Brauner-Osborne H, Brann M R. Pharmacology of muscarinic acetylcholine receptor subtypes (m1-m5): high throughput assays in mammalian cells. Eur J Pharmacol Jan. 4, 1996;295(1):93-102, and Spalding T A, Trotter C, Skjaerbaek N, Messier T L, Currier E A, Burstein E S, Li D, Hacksell U, Brann M R. Discovery of an ectopic activation site on the M(1) muscarinic receptor. Mol Pharmacol. 2002 June;61(6):1297-302.

M2 muscarinic receptor = molecular target: T2, M2 muscarinic receptor (Homo sapiens, UniProt P08172); experiment: Receptor Selection and Amplification (R-SAT) assay, cloned M2 receptor; format: cell-based; design: M2 Eff: scale not given here; details: second table (COMPOUND ID series)
T2 construct: expressed in transfected cells
T2 sequence (P08172 1-466): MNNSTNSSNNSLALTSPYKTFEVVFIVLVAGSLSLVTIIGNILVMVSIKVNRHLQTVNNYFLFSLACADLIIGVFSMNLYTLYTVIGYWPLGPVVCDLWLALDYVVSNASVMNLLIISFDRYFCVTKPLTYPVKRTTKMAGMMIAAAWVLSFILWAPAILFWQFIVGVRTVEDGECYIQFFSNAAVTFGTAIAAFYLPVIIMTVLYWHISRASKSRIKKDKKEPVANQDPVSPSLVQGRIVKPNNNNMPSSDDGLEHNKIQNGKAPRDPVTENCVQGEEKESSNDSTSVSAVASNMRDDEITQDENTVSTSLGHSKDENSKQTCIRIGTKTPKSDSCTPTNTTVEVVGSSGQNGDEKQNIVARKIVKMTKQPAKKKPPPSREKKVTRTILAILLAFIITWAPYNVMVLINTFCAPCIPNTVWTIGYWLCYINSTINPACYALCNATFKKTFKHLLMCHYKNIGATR
Source text: as §1, §2, §3

[1] = R-SAT, second table (COMPOUND ID series)
[2] = R-SAT, second table (COMPOUND ID series), read-out: M1 pEC50 (converted)
[3] = R-SAT, read-out: M2 pEC50 (converted)
[4] = M1 pEC50, R-SAT, second table (COMPOUND ID series)
[5] = R-SAT, cloned m1 receptor, read-out: m1 pEC50 (converted)

| SMILES | M1 Eff (M1 muscarinic receptor; [1]) | EC50 (M1 muscarinic receptor; [2]) | M2 Eff (M2 muscarinic receptor; R-SAT) | also measured |
| --- | --- | --- | --- | --- |
| CCCC[C@]1(O)C[C@H]2CC[C@@H](C1)N2C[C@@H](C)CN1C(=O)COc2ccccc21 [Compound 00261478, (R)-4-[3-(3β-Butyl-3a-hydroxy-8-aza-bicyclo[3.2.1]oct-8-yl)-2-methyl-propyl]-1H-benzo[1,4]oxazin-3-one] | 105 | 1.58 µM | 40 | EC50 (M2 muscarinic receptor; [3]): 1.26 µM |
| O=C1COc2cc(F)cc(F)c2N1CCCN1CCC(OCC2CC2)CC1 [Compound 00262471, 4-[3-(4-Cyclopropylmethoxypiperidin-1-yl)propyl]-5,7-difluoro-4H-benzo[1,4]oxazin-3-one] | 86 | 0.794 µM | – | – |
| CC(CN1CCC(OC(=O)OCC2CCC2)CC1)CN1C(=O)COc2ccccc21 (racemic) [Compound 00262198, carbonic acid cyclobutylmethyl ester 1-[(R,S)-2-methyl-3-(3-oxo-2,3-dihydrobenzo[1.4]oxazin-4-yl)propyl]piperidine-4-yl ester] | 48 | 3.98 µM | – | – |
| CCc1cccc2c1OCC(=O)N2CC(C)CN1CCC(OCC2CC2)CC1 (racemic) [Compound 00262867, (R,S)-4-[3-(4-Cyclopropylmethoxypiperidin-1-yl)-2-methylpropyl]-8-ethyl-4H-benzo[1,4]oxazin-3-one] | 104 | 0.0794 µM | 32 | EC50 (M2 muscarinic receptor; [3]): 1.58 µM |
| CCCC=C1CCN(C[C@@H](C)CN2C(=O)COc3ccc(OC)cc32)CC1 (racemic) [Compound 107LH74-3D, (R,S)-4-[3-(4-Butylidenepiperidin-1-yl)-2-methylpropyl]-6-methoxy-4H-benzo[1,4]oxazin-3-one] | – | – | – | m1 % Efficacy (M1 muscarinic receptor; R-SAT, cloned m1 receptor): 97%; m1 pEC50 (M1 muscarinic receptor; R-SAT, cloned m1 receptor): 8.0 |
| CCON=C1CC2CCC(C1)N2C[C@@H](C)CN1C(=O)COc2ccccc21 (single isomer, unassigned) [Compound 00261434] | 110 | – | 50 | EC50 (M1 muscarinic receptor; [4]): 0.631 µM; EC50 (M2 muscarinic receptor; M2 pEC50, R-SAT): 2 µM |
| COC(CN1CCC(OCC2CC2)CC1)CN1C(=O)COc2cc(F)ccc21 (racemic) [Compound 00262784, (R,S)-4-[3-(4-Cyclopropylmethoxypiperidin-1-yl)-2-methoxypropyl]-7-fluoro-4H-benzo[1.4]oxazin-3-one] | 94 | 0.0794 µM | 71 | EC50 (M2 muscarinic receptor; [3]): 2 µM |
| O=C1CCc2cc(F)c(F)cc2N1CCCN1C2CCC1CC(=CCOCC1CC1)C2 [Compound 00262356, 1-{3-[3-(2-Cyclopropylmethoxyethylidene)-8-azabicyclo[3.2.1]oct-8-yl]-propyl}-6,7-difluoro-3,4-dihydro-1H-quinolin-2-one] | 46 | – | – | EC50 (M1 muscarinic receptor; [4]): 0.0316 µM |
| CC(CN1C(=O)COc2ccccc21)CN1[C@@H]2CC[C@H]1C[C@@H](OCC1CC1)C2 (mixture of isomers) [Compound 00262573, (R,S)-4-[3-(3a-Cyclopropylmethoxy-8-azabicyclo[3.2.1]oct-8-yl)-2-methylpropyl]-4H-benzo[1.4]oxazin-3-one] | 120 | – | 72 | EC50 (M1 muscarinic receptor; [4]): 0.00398 µM; EC50 (M2 muscarinic receptor; M2 pEC50, R-SAT): 0.0501 µM |
| CC(CN1CCC(OCC2CCC2)CC1)CN1C(=O)COc2ccccc21 (racemic) [Compound 00262197, 4-[(R,S)-3-(4-Cyclobutylmethoxypiperidin-1-yl)-2-methylpropyl]-4H-benzo[1.4]oxazin-3-one] | 122 | 0.158 µM | 28 | EC50 (M2 muscarinic receptor; [3]): 2.51 µM |
| O=C1CCc2cc(F)c(F)cc2N1CCCN1CCC(OCC2CC2)CC1 [Compound 00262272, 1-[3-(4-Cyclopropylmethoxypiperidin-1-yl)propyl]-6,7-difluoro-3,4-dihydro-1H-quinolin-2-one] | 94 | 0.0501 µM | 57 | EC50 (M2 muscarinic receptor; [3]): 1 µM |
| CC(CN1C(=O)COc2ccccc21)CN1C2CCC1CC(=CCOCC1CC1)C2 [Compound 00262357, 4-{(R,S)-3-[3-(2-Cyclopropylmethoxyethylidene)-8-aza-bicyclo[3.2.1]oct-8-yl]-2-methylpropyl}-4H-benzo[1.4]oxazin-3-one] | 79 | – | – | EC50 (M1 muscarinic receptor; [4]): 0.0126 µM |
| O=C1COc2cc(F)c(F)cc2N1CCCN1CCC(OCC2CC2)CC1 [Compound 00262461, 4-[3-(4-Cyclopropylmethoxypiperidin-1-yl)propyl]-6,7-difluoro-4H-benzo[1.4]oxazin-3-one] | 95 | 0.0501 µM | 61 | EC50 (M2 muscarinic receptor; [3]): 0.631 µM |
| CCOCCC1CC2CCC(C1)N2CC(C)CN1C(=O)COc2ccccc21 (single isomer, unassigned) [Compound 00262993] | 55 | – | – | EC50 (M1 muscarinic receptor; [4]): 0.0794 µM |
| O=C1COc2ccccc2N1CCCN1CCC(OCC2CC2)CC1 [Compound 00262922, 4-[3-(4-Cyclopropylmethoxypiperidin-1-yl)propyl]-4H-benzo[1.4]oxazin-3-one] | 84 | 0.0794 µM | 40 | EC50 (M2 muscarinic receptor; [3]): 1.26 µM |
| CCCCC1CCN(CCCN2CCCc3ccc(C(F)(F)F)cc32)CC1 [Compound 55LH54, 1-[3-(4-Butyl-piperidin-1-yl)-propyl]-7-trifluoromethyl-12.3.4-tetrahydro-quinoline] | – | – | – | Emax (M1 muscarinic receptor; R-SAT, cloned m1 receptor): 57%; EC50 (M1 muscarinic receptor; [5]): 0.398 µM |
| CCCCCC1CC2CC[C@@H](C1)N2C[C@@H](C)CN1C(=O)COc2cc(F)ccc21 (stereo partly drawn) [Compound 112KK20-c5, (R,S)-7-Fluoro-4-[2-methyl-3-(3-pentyl-8-azabicyclo[3.2.1]oct-8-yl)propyl]-4H-benzo[1,4]oxazin-3-one] | – | – | – | EC50 (M1 muscarinic receptor; m1 pEC50, R-SAT, cloned m1 receptor): 0.00501 µM; Emax (M1 muscarinic receptor): 117% |
| COCC[C@H]1C[C@H]2CC[C@@H](C1)N2C[C@H](C)CN1C(=O)COc2ccccc21 [Compound 00263035, (S)-4-{3-[3a-(2-Methoxyethyl)-8-azabicyclo[3.2.1]oct-8-yl]-2-methylpropyl}-4H-benzo[1.4]oxazin-3-one] | 97 | – | – | EC50 (M1 muscarinic receptor; [4]): 0.251 µM |
| O=C1COc2c(F)cc(F)cc2N1CCCN1CCC(OCC2CC2)CC1 [Compound 00262874] | 87 | 0.631 µM | – | – |
| CCOCC[C@@H]1C[C@H]2CC[C@@H](C1)N2C[C@H](C)CN1C(=O)COc2ccccc21 [Compound 00263034, (S)-4-{3-[3β-(2-Ethoxyethyl)-8-azabicyclo[3.2.1]oct-8-yl]-2-methylpropyl}-4H-benzo[1.4]oxazin-3-one] | 68 | – | – | EC50 (M1 muscarinic receptor; [4]): 0.158 µM |
| CCCCC1CCN(CCCN2C(=O)COc3ccc(C(C)=O)cc32)CC1 [Compound 64LHY89-5, 6-Acetyl-4-[3-(4-butyl-piperidin-1-yl)-propyl]-4H-benzo[1,4]oxazin-3-one] | – | – | – | Emax (M1 muscarinic receptor; R-SAT, cloned m1 receptor): 45%; EC50 (M1 muscarinic receptor; [5]): 2.51 µM |
| O=C1COc2ccc(F)c(F)c2N1CCCN1CCC(OCC2CC2)CC1 [Compound 00262696, 4-[3-(4-Cyclopropylmethoxypiperidin-1-yl)propyl]-5,6-difluoro-4H-benzo[1,4]oxazin-3-one] | 83 | 0.631 µM | – | – |
| O=C1COc2c(F)ccc(F)c2N1CCCN1CCC(OCC2CC2)CC1 [Compound 00262869, 4-[3-(4-Cyclopropylmethoxypiperidin-1-yl)propyl]-5,8-difluoro-4H-benzo[1,4]oxazin-3-one] | 32 | 1.58 µM | – | – |
| CCCCC1CCN(CCCN2C(=O)CCc3c2ccc(F)c3C)CC1 [Compound 107LH95-1, 1-[3-(4-Butyl-piperidin-1-yl)propyl]-6-fluoro-5-methyl-3,4-dihydro-1H-quinolin-2-one] | – | – | – | Emax (M1 muscarinic receptor; R-SAT, cloned m1 receptor): 103%; EC50 (M1 muscarinic receptor; [5]): 0.0251 µM |
